From ChEMBL document CHEMBL5465560, “Selectivity Literature for EUbOPEN Chemogenomic Library” (2024)

Assays:
[1] = biological target: Mitogen-activated protein kinase kinase kinase 21 (Homo sapiens) (UniProt Q5TCX8); assay: Selectivity interaction (Kinase panel (KiNativ target engagement assay in Jurkat cells)) EUB0001635a MAP3K21; type: cell-based; conditions: Selectivity number of off-targets 0.0, Selectivity number of targets 233.0, Source Knowledge https://www.sciencedirect.com/science/article/pii/S2451945619300674?via%3Dihub, at 1 µM
Chain of Mitogen-activated protein kinase kinase kinase 21 (Homo sapiens) (Q5TCX8 whole entry): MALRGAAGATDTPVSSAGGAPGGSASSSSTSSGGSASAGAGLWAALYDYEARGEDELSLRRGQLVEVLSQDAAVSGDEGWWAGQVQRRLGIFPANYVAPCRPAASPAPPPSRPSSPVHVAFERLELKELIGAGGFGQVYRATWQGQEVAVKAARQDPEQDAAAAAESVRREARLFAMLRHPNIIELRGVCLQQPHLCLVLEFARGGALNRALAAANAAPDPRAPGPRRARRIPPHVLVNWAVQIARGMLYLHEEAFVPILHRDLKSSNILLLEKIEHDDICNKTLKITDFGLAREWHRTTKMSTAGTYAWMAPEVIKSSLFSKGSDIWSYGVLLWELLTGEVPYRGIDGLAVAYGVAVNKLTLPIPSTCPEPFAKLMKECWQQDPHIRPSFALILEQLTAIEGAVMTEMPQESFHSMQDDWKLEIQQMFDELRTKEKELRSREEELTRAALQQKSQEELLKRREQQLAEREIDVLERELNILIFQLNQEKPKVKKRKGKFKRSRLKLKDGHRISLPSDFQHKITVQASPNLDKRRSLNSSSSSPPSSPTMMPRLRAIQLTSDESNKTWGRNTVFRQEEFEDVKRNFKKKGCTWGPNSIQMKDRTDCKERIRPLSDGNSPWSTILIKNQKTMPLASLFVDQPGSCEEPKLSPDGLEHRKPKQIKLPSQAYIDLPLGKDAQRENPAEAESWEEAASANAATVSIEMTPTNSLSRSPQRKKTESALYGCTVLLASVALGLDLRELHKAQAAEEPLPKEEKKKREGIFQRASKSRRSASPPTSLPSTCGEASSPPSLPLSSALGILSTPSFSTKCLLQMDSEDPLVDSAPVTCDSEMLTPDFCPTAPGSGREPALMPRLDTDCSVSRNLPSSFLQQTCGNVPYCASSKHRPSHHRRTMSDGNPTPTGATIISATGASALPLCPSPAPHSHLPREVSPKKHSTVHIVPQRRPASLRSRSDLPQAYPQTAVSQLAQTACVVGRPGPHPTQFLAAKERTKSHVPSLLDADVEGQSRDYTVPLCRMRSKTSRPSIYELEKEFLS

[2] = biological target: Nuclear body protein SP140-like protein (Homo sapiens) (UniProt Q9H930); assay: Selectivity interaction (Human bromodomain panel (DSF assay)) EUB0000233b SP140L
Chain of Nuclear body protein SP140-like protein (Homo sapiens) (Q9H930 whole entry): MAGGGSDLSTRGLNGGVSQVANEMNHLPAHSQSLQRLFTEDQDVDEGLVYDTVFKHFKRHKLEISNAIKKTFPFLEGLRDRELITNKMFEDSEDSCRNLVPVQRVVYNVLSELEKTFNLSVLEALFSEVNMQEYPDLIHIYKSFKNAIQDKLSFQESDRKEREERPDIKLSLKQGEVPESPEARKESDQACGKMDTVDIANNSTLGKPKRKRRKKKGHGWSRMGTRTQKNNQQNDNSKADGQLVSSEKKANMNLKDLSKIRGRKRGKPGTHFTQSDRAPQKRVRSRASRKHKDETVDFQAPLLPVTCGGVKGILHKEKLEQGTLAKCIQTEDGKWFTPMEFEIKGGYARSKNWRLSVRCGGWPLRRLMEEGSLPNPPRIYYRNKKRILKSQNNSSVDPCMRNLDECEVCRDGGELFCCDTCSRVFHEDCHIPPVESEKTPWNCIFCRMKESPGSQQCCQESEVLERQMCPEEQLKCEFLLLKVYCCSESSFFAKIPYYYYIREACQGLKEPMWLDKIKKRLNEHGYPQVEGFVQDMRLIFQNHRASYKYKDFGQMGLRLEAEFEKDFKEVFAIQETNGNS

[3] = biological target: Tyrosine-protein kinase BTK (Homo sapiens, UniProt Q06187); assay: Selectivity interaction (ActivX KiNativ screen (kinase selectivity in THP-1 cell lysates)) EUB0000639a BTK; type: subcellular; conditions: lysate, at 1 µM
Chain of Tyrosine-protein kinase BTK (Q06187 whole entry): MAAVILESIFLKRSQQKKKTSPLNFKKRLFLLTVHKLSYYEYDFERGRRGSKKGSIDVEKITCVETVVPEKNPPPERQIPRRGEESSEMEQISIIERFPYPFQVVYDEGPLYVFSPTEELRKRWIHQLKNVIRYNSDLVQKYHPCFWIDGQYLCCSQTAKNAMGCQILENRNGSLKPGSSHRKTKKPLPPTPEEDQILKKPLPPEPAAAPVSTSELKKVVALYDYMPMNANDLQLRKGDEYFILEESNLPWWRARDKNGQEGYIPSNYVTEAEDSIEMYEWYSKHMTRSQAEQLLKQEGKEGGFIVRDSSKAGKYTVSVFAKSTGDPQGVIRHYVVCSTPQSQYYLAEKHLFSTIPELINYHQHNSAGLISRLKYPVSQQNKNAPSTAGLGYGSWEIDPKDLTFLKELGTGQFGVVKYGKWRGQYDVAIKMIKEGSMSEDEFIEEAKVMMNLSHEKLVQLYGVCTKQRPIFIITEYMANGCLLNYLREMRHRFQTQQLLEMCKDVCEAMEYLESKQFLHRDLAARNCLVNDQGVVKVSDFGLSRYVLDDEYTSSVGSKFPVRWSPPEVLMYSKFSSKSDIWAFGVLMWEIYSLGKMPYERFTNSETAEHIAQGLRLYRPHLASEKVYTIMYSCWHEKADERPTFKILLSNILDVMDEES

[4] = biological target: Cyclin-dependent kinase 20 (Homo sapiens) (UniProt Q8IZL9); assay: Selectivity interaction (ActivX KiNativ screen (kinase selectivity in THP-1 cell lysates)) EUB0000639a CDK20; type: subcellular; conditions: lysate
Chain of Cyclin-dependent kinase 20 (Homo sapiens) (Q8IZL9 whole entry): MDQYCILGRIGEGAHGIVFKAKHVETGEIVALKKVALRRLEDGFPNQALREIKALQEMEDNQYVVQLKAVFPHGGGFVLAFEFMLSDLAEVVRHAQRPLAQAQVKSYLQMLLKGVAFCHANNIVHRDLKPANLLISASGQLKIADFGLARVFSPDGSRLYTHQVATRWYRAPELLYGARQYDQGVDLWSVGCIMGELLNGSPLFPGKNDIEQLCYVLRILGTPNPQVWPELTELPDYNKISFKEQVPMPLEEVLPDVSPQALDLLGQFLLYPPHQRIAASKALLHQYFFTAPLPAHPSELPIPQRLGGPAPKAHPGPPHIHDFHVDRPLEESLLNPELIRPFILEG

[5] = biological target: Calcium/calmodulin-dependent protein kinase kinase 2 (Homo sapiens) (UniProt Q96RR4); assay: Selectivity interaction (KinomeScan (DiscoverX)) EUB0000595a CAMKK2; conditions: at 10 µM
[6] = biological target: G protein-coupled receptor kinase 4 (Homo sapiens) (UniProt P32298); assay: Selectivity interaction (Ambit KINOMEscan and KiNATiv profiling in Jurkat cells) EUB0000090b GRK4; type: cell-based; conditions: at 1 µM
Chain of G protein-coupled receptor kinase 4 (Homo sapiens) (P32298 whole entry, looked up): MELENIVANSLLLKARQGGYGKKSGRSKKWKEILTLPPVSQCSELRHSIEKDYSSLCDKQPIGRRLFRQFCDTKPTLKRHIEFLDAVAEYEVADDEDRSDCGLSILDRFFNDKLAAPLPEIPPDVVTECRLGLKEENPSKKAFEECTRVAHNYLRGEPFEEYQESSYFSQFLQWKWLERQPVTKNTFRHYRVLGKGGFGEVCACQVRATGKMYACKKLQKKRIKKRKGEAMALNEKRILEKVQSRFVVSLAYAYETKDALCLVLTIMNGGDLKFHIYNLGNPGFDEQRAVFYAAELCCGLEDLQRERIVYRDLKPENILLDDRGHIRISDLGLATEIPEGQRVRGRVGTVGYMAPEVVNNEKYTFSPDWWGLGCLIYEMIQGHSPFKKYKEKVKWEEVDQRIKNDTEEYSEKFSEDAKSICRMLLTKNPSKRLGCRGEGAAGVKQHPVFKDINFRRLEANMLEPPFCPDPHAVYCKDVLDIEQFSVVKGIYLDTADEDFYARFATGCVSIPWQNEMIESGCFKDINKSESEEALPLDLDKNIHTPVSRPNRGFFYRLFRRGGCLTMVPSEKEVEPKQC

[7] = biological target: RAC-beta serine/threonine-protein kinase (Homo sapiens) (UniProt P31751); conditions: at 10 µM
[8] = biological target: Cyclin-dependent kinase 15 (Homo sapiens) (UniProt Q96Q40); conditions: at 10 µM
Chain of Cyclin-dependent kinase 15 (Homo sapiens) (Q96Q40 whole entry): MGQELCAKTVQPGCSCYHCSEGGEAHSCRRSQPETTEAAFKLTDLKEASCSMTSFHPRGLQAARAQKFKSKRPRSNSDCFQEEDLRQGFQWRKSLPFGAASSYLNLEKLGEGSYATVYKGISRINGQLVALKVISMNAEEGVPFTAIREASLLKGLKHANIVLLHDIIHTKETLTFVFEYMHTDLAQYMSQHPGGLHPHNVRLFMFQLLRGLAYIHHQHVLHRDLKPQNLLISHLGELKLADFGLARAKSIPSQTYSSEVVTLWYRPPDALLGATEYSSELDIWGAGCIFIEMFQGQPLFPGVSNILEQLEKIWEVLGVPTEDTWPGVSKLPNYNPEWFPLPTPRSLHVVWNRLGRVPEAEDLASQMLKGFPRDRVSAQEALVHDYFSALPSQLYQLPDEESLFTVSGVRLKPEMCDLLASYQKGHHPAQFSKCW

[9] = biological target: T1, Serine/threonine-protein kinase 3 (Homo sapiens) (UniProt Q13188); conditions: at 10 µM
T1 sequence (whole entry): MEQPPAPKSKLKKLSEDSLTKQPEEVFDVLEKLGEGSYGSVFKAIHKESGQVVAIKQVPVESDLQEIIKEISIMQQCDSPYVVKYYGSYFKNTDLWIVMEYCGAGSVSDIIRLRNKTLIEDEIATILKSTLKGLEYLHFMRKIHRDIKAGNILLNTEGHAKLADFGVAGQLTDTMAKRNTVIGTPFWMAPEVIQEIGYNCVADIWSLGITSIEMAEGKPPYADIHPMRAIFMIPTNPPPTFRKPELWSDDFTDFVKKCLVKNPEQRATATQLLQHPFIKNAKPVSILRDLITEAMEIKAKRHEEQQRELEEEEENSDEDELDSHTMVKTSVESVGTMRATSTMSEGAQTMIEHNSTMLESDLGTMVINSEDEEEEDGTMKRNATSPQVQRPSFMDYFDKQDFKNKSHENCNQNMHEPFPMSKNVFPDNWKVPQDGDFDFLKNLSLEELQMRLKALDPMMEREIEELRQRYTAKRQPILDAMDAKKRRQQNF

[10] = biological target: T2, Rhodopsin kinase GRK1 (Homo sapiens) (UniProt Q15835); assay: Selectivity interaction (KinomeScan (DiscoverX)) EUB0000695a GRK1; conditions: at 100 nM
T2 sequence (whole entry): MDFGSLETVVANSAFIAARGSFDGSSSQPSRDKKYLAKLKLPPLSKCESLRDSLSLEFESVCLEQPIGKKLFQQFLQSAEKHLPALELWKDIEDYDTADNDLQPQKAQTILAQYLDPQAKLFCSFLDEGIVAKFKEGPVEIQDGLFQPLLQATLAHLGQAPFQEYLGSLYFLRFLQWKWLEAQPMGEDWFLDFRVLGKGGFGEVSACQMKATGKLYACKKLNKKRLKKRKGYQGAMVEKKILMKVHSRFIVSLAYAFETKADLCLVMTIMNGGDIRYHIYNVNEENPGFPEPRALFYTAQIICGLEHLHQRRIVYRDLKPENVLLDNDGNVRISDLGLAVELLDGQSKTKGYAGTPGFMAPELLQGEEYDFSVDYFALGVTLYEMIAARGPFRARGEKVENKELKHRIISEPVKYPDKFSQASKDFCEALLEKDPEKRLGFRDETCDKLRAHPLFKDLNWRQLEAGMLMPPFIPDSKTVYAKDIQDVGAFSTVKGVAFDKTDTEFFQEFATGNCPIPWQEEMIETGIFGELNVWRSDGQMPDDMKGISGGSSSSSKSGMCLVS

[11] = biological target: T3, cGMP-dependent protein kinase 1 (Homo sapiens) (UniProt Q13976); assay: Selectivity interaction (KinomeScan (DiscoverX)) EUB0000695a PRKG1; conditions: at 100 nM
T3 sequence (whole entry): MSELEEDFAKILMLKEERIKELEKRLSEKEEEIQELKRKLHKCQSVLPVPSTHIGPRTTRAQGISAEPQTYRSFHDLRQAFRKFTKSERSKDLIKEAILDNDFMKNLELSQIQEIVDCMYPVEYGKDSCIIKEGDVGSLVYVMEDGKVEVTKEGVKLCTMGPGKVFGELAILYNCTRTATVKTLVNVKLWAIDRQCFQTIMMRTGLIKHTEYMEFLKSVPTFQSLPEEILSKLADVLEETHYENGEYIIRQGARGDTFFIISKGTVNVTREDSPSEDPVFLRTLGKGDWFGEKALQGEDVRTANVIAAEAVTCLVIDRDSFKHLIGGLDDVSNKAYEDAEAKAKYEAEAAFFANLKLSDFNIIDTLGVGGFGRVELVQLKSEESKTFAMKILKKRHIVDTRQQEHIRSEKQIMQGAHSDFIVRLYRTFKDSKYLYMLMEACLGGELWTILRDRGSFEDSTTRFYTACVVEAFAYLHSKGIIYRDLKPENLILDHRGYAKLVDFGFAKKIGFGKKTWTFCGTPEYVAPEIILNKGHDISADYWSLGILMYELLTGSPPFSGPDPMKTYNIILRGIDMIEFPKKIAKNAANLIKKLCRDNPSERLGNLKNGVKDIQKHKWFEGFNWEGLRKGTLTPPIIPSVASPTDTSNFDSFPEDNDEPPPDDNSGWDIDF

[12] = biological target: Serine/threonine-protein kinase 32A (Homo sapiens) (UniProt Q8WU08); assay: Selectivity interaction (KinomeScan (DiscoverX)) EUB0000695a STK32A; conditions: at 100 nM
[13] = test system: Phosphatidylinositol 4,5-bisphosphate 3-kinase catalytic subunit alpha isoform (Homo sapiens), P42336 [E545A]; conditions: at 10 µM
Chain of Phosphatidylinositol 4,5-bisphosphate 3-kinase catalytic subunit alpha isoform (Homo sapiens), P42336 [E545A] (P42336 whole entry E545A, canonical isoform): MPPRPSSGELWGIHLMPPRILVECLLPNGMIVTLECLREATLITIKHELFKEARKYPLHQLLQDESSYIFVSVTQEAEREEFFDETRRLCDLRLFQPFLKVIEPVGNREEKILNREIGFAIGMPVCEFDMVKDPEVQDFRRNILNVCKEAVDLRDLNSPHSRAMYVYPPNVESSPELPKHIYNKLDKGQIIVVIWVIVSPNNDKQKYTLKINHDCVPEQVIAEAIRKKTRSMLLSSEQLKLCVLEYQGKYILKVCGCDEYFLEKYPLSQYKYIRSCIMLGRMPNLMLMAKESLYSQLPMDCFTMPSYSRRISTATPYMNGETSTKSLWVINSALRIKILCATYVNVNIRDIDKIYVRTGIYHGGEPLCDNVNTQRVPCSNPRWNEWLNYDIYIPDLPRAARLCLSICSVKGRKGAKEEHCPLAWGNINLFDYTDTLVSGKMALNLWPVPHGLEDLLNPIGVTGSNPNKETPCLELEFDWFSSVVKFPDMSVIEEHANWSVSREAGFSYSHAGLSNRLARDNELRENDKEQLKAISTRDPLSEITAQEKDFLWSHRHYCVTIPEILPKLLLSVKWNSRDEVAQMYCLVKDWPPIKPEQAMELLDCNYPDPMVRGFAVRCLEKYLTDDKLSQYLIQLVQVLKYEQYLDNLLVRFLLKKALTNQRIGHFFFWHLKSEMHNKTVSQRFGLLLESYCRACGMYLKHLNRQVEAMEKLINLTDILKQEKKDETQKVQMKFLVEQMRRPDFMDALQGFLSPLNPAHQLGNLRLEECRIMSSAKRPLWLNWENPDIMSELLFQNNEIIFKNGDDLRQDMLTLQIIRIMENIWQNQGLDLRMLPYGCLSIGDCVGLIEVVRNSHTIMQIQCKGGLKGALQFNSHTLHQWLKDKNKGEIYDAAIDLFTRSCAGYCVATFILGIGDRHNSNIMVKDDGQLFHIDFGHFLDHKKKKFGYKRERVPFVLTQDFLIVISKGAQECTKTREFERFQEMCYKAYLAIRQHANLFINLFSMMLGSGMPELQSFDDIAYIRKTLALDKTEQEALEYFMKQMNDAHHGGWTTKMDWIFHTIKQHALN

## C=CC(=O)Nc1ccc(C(=O)Nc2[nH]nc3c2CN(C(=O)N[C@H](CN(C)C)c2ccccc2)C3(C)C)cc1
[1]
  % of engagement: -4.1%

## CN(C)CCCOc1ccc(-c2cc(NCCCn3cccn3)nc(S(C)(=O)=O)n2)cc1
[2]
  dTM: < 2 K

## CC[C@@H]1[C@H](F)C(=O)N[C@@H]1COc1nccc2cc(C(N)=O)c(OC)cc12 [ZIMLOVISERTIB]
[3]
  % of inhibition: -7.2%
[4]; at 0.01 µM
  % of inhibition: 6.4%
[4]; at 0.04 µM
  % of inhibition: -8.7%
[4]; at 0.2 µM
  % of inhibition: -2%
[4]; at 1 µM
  % of inhibition: -0.8%
[4]; at 5 µM
  % of inhibition: -1.4%

## COCC(=O)NC/C=C/c1ccc2ncnc(Nc3ccc(Oc4ccc(C)nc4)c(C)c3)c2c1 [CP-724714]
[5]
  % of control: 85%

## CN(C)C/C=C/C(=O)Nc1ccc(C(=O)N2CCCC(Nc3ncc(Cl)c(-c4c[nH]c5ccccc45)n3)C2)cc1 (configuration not stated)
[6]
  % of control: 99%

## Cc1cc([C@@H](C)Nc2ccccc2C(=O)O)c2nc(N3CCOCC3)cc(=O)n2c1 [AZD-6482]
[7]
  % of control: 86%
[8]
  % of control: 100%
[9]
  % of control: 66%

## Cc1cc(F)c(C(=O)Nc2cccc(-c3nncn3C(C)C)n2)cc1-n1cnc(C2CC2)c1
[10]
  % of control: 100%
[11]
  % of control: 100%
[12]
  % of control: 100%

## CNC(=O)Nc1ccc(-c2nc(N3CC4CCC(C3)O4)c3cnn(C4CCC5(CC4)OCCO5)c3n2)cc1
[13]
  % of control: 8.8%
